Experimental data published in patent US20080318792A1, “Extension of pollination period” (priority 2007, published 2008).

Experiments:
[1] = test system: corn seed lot "Hughes High" (commercial hybrid); experiment: Dose-response of corn soil emergence to ABA seed treatment in calendar and thermal time; assay type: in vivo
Source text: Because corn germination and phenology is driven by heat, the corn seed industry uses thermal time (Growing-Degree-Days, or GDD) rather than calendar time to measure and predict flowering. The standard formula for calculating the GDD contribution from one calendar day for corn is: where “Max temp” is either the high temperature for the day or 86, whichever is lower, and “Min temp” is either the low temperature for the day in F or 50, whichever is higher. In growth chambers at constant temperature the calculation is trivial. For example, in our nominally 25° C. chamber, the soil temperature is actually about 26.1° C. (79 F) due to the heat contribution of the light. This time corresponds to 29 GDD. […] The purpose of this experiment was to evaluate the dose response of corn seed emergence after seed treatment with ABA in terms of thermal time. ABA was applied at 0, 1, 2, 3, 4, 5, 10, 15, 20 and 25 g/cwt as the free acid in experimental seed treatment slurries as described under Example 1. The seed lot was designated as “Hughes High” and was a commercial hybrid. The seed was planted in soil in plastic boxes as described under Example 2, and incubated at 25° C. and 18° C. as described under Example 2. Emergence was counted every 1-2 days and the data reduced as described under Example 2. The daily heat unit contribution was calculated for the two chambers, and the responses examined in cumulative thermal time as well as calendar time.

[2] = test system: Hughes 1883 hybrid corn seed; experiment: Soil germination/emergence of corn seed treated with different forms of ABA in slurry; assay type: in vivo; conditions: for delay: treatments with ABA vs control; for Final emergence / QR / T50: 25 g/cwt as free acid
Protocol: Three forms of ABA were evaluated in this experiment 1) free acid, 2) ammonium salt, and 3) sodium salt. The cation is referred to as the “counter-ion” below. […] The treatments were made up in 3 ml samples of experimental aqueous seed treatment slurry. All of the seed treatment slurry samples contained CF-Clear film-forming agent and Colorcoat Red (Becker Underwood), each at 1 oz/cwt, and 0.167 oz/cwt Maxim XL fungicide (Syngenta). The slurry application volume was 20 oz/cwt (cwt=100 lbs of seed).
One hundred gram samples of Hughes 1883 hybrid corn seed were treated with the experimental slurries using a Hege 11 seed treater with a six-inch bowl.
The seed was planted in plastic boxes containing 1 kg of typical agricultural silt loam. Fifty seeds were planted 3 cm deep in each plastic box, and the soil in the box was adjusted to 21% soil moisture (wet-weight basis). Two replications of the experiment were incubated under constant light in a 25° C. chamber and two replications incubated under constant light in an 18° C. chamber. The boxes were watered up to the correct weight daily, and checked for emergence. Daily counts of seedlings were continued until emergence ceased. The final count of emerged seedlings was expressed as a percentage of the 50 seeds planted (GERM).
The daily counts were converted to proportions of the final germination of the box, and a Gompertz curve was fitted to the data from each box using SAS Proc NLIN. From the parameters of the model, median germination time (T50) and quartile range (QR) were estimated for each box. Analysis of variance was performed and means calculated for each of the three responses (GERM, T50, QR).

[3] = ABA free acid 20 g/cwt, 25° C. soil test

CC1=CC(=O)CC(C)(C)[C@@]1(O)/C=C/C(C)=C\C(=O)O [ABA, S-(+)-abscisic acid]
effect on emergence of corn seedlings ([1]; ABA free acid 1-25 g/cwt, 18 and 25° C.): delayed emergence progressively as the dose was increased
Emergence ([1]; ABA free acid 1 g/cwt, 18° C. soil test): 94.2%
Emergence ([1]; ABA free acid 1 g/cwt, 25° C. soil test): 97.1%
Emergence ([1]; ABA free acid 2 g/cwt, 18° C. soil test): 91.2%
Emergence ([1]; ABA free acid 2 g/cwt, 25° C. soil test): 95.5%
Emergence ([1]; ABA free acid 3 g/cwt, 18° C. soil test): 94.0%
Emergence ([1]; ABA free acid 3 g/cwt, 25° C. soil test): 92.1%
Emergence ([1]; ABA free acid 4 g/cwt, 18° C. soil test): 89.2%
Emergence ([1]; ABA free acid 4 g/cwt, 25° C. soil test): 96.3%
Emergence ([1]; ABA free acid 5 g/cwt, 18° C. soil test): 92.0%
Emergence ([1]; ABA free acid 5 g/cwt, 25° C. soil test): 95.0%
Emergence ([1]; ABA free acid 10 g/cwt, 18° C. soil test): 94.0%
Emergence ([1]; ABA free acid 10 g/cwt, 25° C. soil test): 89.0%
Emergence ([1]; ABA free acid 15 g/cwt, 18° C. soil test): 92.1%
Emergence ([1]; ABA free acid 15 g/cwt, 25° C. soil test): 96.3%
Emergence ([1]; ABA free acid 20 g/cwt, 18° C. soil test): 90.1%
Emergence [1, 3]: 95.0%
delay [1, 3]: 3.4 days
Emergence ([1]; ABA free acid 25 g/cwt, 18° C. soil test): 88.1%
Emergence ([1]; ABA free acid 25 g/cwt, 25° C. soil test): 97.1%
delay as a fraction of the germination time of the control at the same temperature ([2]; 18 and 25° C.): roughly doubling the time to emergence
delay ([2]; 18° C.): 5.8 days
Final emergence ([2]; soil 18° C.): 97%
QR ([2]; soil 18° C.): 2.96 days
T50 ([2]; soil 18° C.): 11.4 days
Final emergence ([2]; soil 25° C.): 96%
QR ([2]; soil 25° C.): 1.32 days
T50 ([2]; soil 25° C.): 7.7 days
delay ([2]; 25° C.): 4.4 days
median-time-to-germination ([2]; regardless of counter-ion, 18 and 25° C., p<0.0001): increased
Quartile range ([2]; regardless of counter-ion, 18 and 25° C., p<0.0002): increased
